Results as given in ChEMBL document CHEMBL1201861, “Genomics of Drug Sensitity in Cancer screening data, Wellcome Trust Sanger Institute”.

What was measured:
Experiment in all cases: cells
[1] = system: EFO-27; type: functional, cell-based, Homo sapiens; conditions: Homo sapiens, EFO-27;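 further: growth inhibition of EFO-27 cells, read out with a cell viability assay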
Description: SANGER: Inhibition of human EFO-27 cell growth in a cell viability assay.

[2] = system: TK-10; type: functional, cell-based, Homo sapiens; conditions: Homo sapiens, TK-10;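 further: growth inhibition of TK-10 cells, read out in a cell viability assay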
Description: SANGER: Inhibition of human TK10 cell growth in a cell viability assay.

[3] = system: KLE; type: functional, cell-based, Homo sapiens; conditions: Homo sapiens, KLE;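 further: growth inhibition of human KLE cells, read out with a cell viability assay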
Description: SANGER: Inhibition of human KLE cell growth in a cell viability assay.

[4] = system: SNB-75; type: functional, cell-based, Homo sapiens; conditions: Homo sapiens, SNB-75;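 further: cell viability assay measuring growth inhibition of human SNB-75 cells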
Description: SANGER: Inhibition of human SNB75 cell growth in a cell viability assay.

[5] = system: RO82-W-1; type: functional, cell-based, Homo sapiens; conditions: Homo sapiens, RO82-W-1;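 further: growth inhibition of human RO82-W-1 cells, measured with a cell viability assay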
Description: SANGER: Inhibition of human RO82-W-1 cell growth in a cell viability assay.

[6] = system: BEN; type: functional, cell-based, Homo sapiens; conditions: Homo sapiens, BEN;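 further: growth inhibition of the BEN cell line, read out with a cell viability assay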
Description: SANGER: Inhibition of human BEN cell growth in a cell viability assay.

[7] = system: CAL-120; type: functional, cell-based, Homo sapiens; conditions: Homo sapiens, CAL-120;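 further: cell growth inhibition, read out as cell viability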
Description: SANGER: Inhibition of human CAL-120 cell growth in a cell viability assay.

[8] = system: NCI-H1648; type: functional, cell-based, Homo sapiens; conditions: Homo sapiens, NCI-H1648;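 further: cell viability assay measuring inhibition of NCI-H1648 cell growth, from the Sanger screening data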
Description: SANGER: Inhibition of human NCI-H1648 cell growth in a cell viability assay.

[9] = system: SK-NEP-1; type: functional, cell-based; conditions: Homo sapiens;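 further: growth inhibition of human SK-NEP-1 cells, read out by a cell viability assay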
Description: SANGER: Inhibition of human SK-NEP-1 cell growth in a cell viability assay.

[10] = system: MN-60; type: functional, cell-based; conditions: Homo sapiens;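 further: growth inhibition of the MN-60 cell line, determined with a cell viability assay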
Description: SANGER: Inhibition of human MN-60 cell growth in a cell viability assay.

[11] = system: MCF7; type: functional, cell-based, Homo sapiens; conditions: Homo sapiens, MCF7;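 further: growth inhibition of human MCF7 cells, read out with a cell viability assay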
Description: SANGER: Inhibition of human MCF7 cell growth in a cell viability assay.

[12] = system: MS-1; type: functional, cell-based; conditions: Homo sapiens;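 further: growth inhibition of MS-1 cells, read out by cell viability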
Description: SANGER: Inhibition of human MS-1 cell growth in a cell viability assay.

[13] = system: D-336MG; type: functional, cell-based, Homo sapiens; conditions: Homo sapiens, D-336MG
Description: SANGER: Inhibition of human D-336MG cell growth in a cell viability assay.

[14] = system: SNU-5; type: functional, cell-based; conditions: Homo sapiens;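 further: cell viability readout used to measure growth inhibition in human NCI-SNU-5 cells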
Description: SANGER: Inhibition of human NCI-SNU-5 cell growth in a cell viability assay.

[15] = system: HCC1569; type: functional, cell-based, Homo sapiens; conditions: Homo sapiens, HCC1569;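 further: growth inhibition of human HCC1569 cells, read out with a cell viability assay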
Description: SANGER: Inhibition of human HCC1569 cell growth in a cell viability assay.

[16] = system: IGR-1; type: functional, cell-based, Homo sapiens; conditions: Homo sapiens, IGR-1;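 further: growth inhibition of human IGR-1 cells, read out with a cell viability assay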
Description: SANGER: Inhibition of human IGR-1 cell growth in a cell viability assay.

[17] = system: MHH-PREB-1; type: functional, cell-based; conditions: Homo sapiens;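 further: cell viability assay measuring inhibition of proliferation of human MHH-PREB-1 cells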
Description: SANGER: Inhibition of human MHH-PREB-1 cell growth in a cell viability assay.

[18] = system: A704; type: functional, cell-based, Homo sapiens; conditions: Homo sapiens, A704;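 further: growth inhibition of human A704 cells, read out with a cell viability assay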
Description: SANGER: Inhibition of human A704 cell growth in a cell viability assay.

[19] = system: NCI-H810; type: functional, cell-based, Homo sapiens; conditions: Homo sapiens, NCI-H810;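 further: IC50 reflects inhibition of cancer cell line growth, read out with a cell viability assay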
Description: SANGER: Inhibition of human NCI-H810 cell growth in a cell viability assay.

[20] = system: NCI-H1770; type: functional, cell-based; conditions: Homo sapiens;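 further: growth inhibition of NCI-H1770 cells determined with a viability readout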
Description: SANGER: Inhibition of human NCI-H1770 cell growth in a cell viability assay.

[21] = system: GOTO; type: functional, cell-based, Homo sapiens; conditions: Homo sapiens, GOTO;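 further: growth inhibition of GOTO cells, read out by a cell viability assay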
Description: SANGER: Inhibition of human GOTO cell growth in a cell viability assay.

[22] = system: LB771-HNC; type: functional, cell-based, Homo sapiens; conditions: Homo sapiens, LB771-HNC;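 further: growth inhibition of LB771-HNC human cells, read out with a cell viability assay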
Description: SANGER: Inhibition of human LB771-HNC cell growth in a cell viability assay.

[23] = system: RPMI-8866; type: functional, cell-based; conditions: Homo sapiens
Description: SANGER: Inhibition of human RPMI-8866 cell growth in a cell viability assay.

[24] = system: HGC-27; type: functional, cell-based, Homo sapiens; conditions: Homo sapiens, HGC-27;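 further: growth inhibition of human HGC-27 cells, read out in a cell viability assay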
Description: SANGER: Inhibition of human HGC-27 cell growth in a cell viability assay.

[25] = system: KP-4; type: functional, cell-based, Homo sapiens; conditions: Homo sapiens, KP-4; read-out: IC50;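 further: human KP-4 cells, with growth inhibition read out through a cell viability assay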
Description: SANGER: Inhibition of human KP-4 cell growth in a cell viability assay.

[26] = system: COLO-678; type: functional, cell-based, Homo sapiens; conditions: Homo sapiens, COLO-678
Description: SANGER: Inhibition of human COLO-678 cell growth in a cell viability assay.

[27] = system: LoVo; type: functional, cell-based; conditions: Homo sapiens;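 further: growth inhibition of human LoVo cells, read out with a cell viability assay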
Description: SANGER: Inhibition of human LoVo cell growth in a cell viability assay.

[28] = system: IGROV-1; type: functional, cell-based, Homo sapiens; conditions: Homo sapiens, IGROV-1;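 further: reduction of IGROV-1 cell growth, read out with a viability assay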
Description: SANGER: Inhibition of human IGROV-1 cell growth in a cell viability assay.

[29] = system: NCI-H520; type: functional, cell-based, Homo sapiens; conditions: Homo sapiens, NCI-H520;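 further: growth inhibition of NCI-H520 cells, measured by a cell viability assay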
Description: SANGER: Inhibition of human NCI-H520 cell growth in a cell viability assay.

[30] = system: OE33; type: functional, cell-based, Homo sapiens; conditions: Homo sapiens, OE33;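 further: growth inhibition of human OE33 cells, measured by a cell viability assay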
Description: SANGER: Inhibition of human OE33 cell growth in a cell viability assay.

[31] = system: CAS-1; type: functional, cell-based, Homo sapiens; conditions: Homo sapiens, CAS-1;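 further: growth inhibition of CAS-1 cells, measured with a cell viability assay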
Description: SANGER: Inhibition of human CAS-1 cell growth in a cell viability assay.

[32] = system: COLO-800; type: functional, cell-based, Homo sapiens; conditions: Homo sapiens, COLO-800;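 further: growth inhibition of COLO-800 cells, read out with a cell viability assay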
Description: SANGER: Inhibition of human COLO-800 cell growth in a cell viability assay.

[33] = system: HAL-01; type: functional, cell-based; conditions: Homo sapiens;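 further: growth inhibition of human HAL-01 cells, read out with a cell viability assay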
Description: SANGER: Inhibition of human HAL-01 cell growth in a cell viability assay.

[34] = system: AGS; type: functional, cell-based, Homo sapiens; conditions: Homo sapiens, AGS;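 further: growth inhibition of AGS cells, determined with a cell viability assay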
Description: SANGER: Inhibition of human AGS cell growth in a cell viability assay.

[35] = system: DK-MG; type: functional, cell-based, Homo sapiens; conditions: Homo sapiens, DK-MG;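 further: growth inhibition of DK-MG cells, read out with a cell viability assay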
Description: SANGER: Inhibition of human DK-MG cell growth in a cell viability assay.

[36] = system: SN12C; type: functional, cell-based, Homo sapiens; conditions: Homo sapiens, SN12C;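 further: growth inhibition of human SN12C cells, measured by a cell viability assay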
Description: SANGER: Inhibition of human SN12C cell growth in a cell viability assay.

[37] = system: CAL-39; type: functional, cell-based, Homo sapiens; conditions: Homo sapiens, CAL-39;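 further: cell viability assay measuring growth inhibition of CAL-39 cells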
Description: SANGER: Inhibition of human CAL-39 cell growth in a cell viability assay.

[38] = system: U-266; type: functional, cell-based; conditions: Homo sapiens
Description: SANGER: Inhibition of human U-266 cell growth in a cell viability assay.

[39] = system: NCI-H2228; type: functional, cell-based, Homo sapiens; conditions: Homo sapiens, NCI-H2228;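 further: growth inhibition of human NCI-H2228 cells, read out by a cell viability assay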
Description: SANGER: Inhibition of human NCI-H2228 cell growth in a cell viability assay.

[40] = system: NY; type: functional, cell-based, Homo sapiens; conditions: Homo sapiens, NY
Description: SANGER: Inhibition of human NY cell growth in a cell viability assay.

[41] = system: OVCAR-3; type: functional, cell-based, Homo sapiens; conditions: Homo sapiens, OVCAR-3;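 further: growth inhibition of human OVCAR-3 cells, determined by a cell viability assay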
Description: SANGER: Inhibition of human OVCAR-3 cell growth in a cell viability assay.

[42] = system: LOX IMVI; type: functional, cell-based; conditions: Homo sapiens
Description: SANGER: Inhibition of human LOXIMVI cell growth in a cell viability assay.

[43] = system: LU-134-A; type: functional, cell-based; conditions: Homo sapiens
Description: SANGER: Inhibition of human LU-134-A cell growth in a cell viability assay.

[44] = system: ALL-PO; type: functional, cell-based; conditions: Homo sapiens;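 further: growth inhibition of ALL-PO cells, read out by a cell viability assay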
Description: SANGER: Inhibition of human ALL-PO cell growth in a cell viability assay.

[45] = system: KARPAS-45; type: functional, cell-based; conditions: Homo sapiens;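 further: inhibition of cell line growth, read out through a viability assay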
Description: SANGER: Inhibition of human KARPAS-45 cell growth in a cell viability assay.

[46] = system: VMRC-RCZ; type: functional, cell-based; conditions: Homo sapiens;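 further: growth inhibition measured with a cell viability assay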
Description: SANGER: Inhibition of human VMRC-RCZ cell growth in a cell viability assay.

[47] = system: SCC-9; type: functional, cell-based, Homo sapiens; conditions: Homo sapiens, SCC-9;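 further: Read-out is a cell viability assay, with values giving inhibition of cell growth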
Description: SANGER: Inhibition of human SCC-9 cell growth in a cell viability assay.

[48] = system: HCT-116; type: functional, cell-based, Homo sapiens; conditions: Homo sapiens, HCT-116
Description: SANGER: Inhibition of human HCT-116 cell growth in a cell viability assay.

[49] = system: NCI-H596; type: functional, cell-based, Homo sapiens; conditions: Homo sapiens, NCI-H596;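 further: growth inhibition of NCI-H596 cells, read out with a cell viability assay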
Description: SANGER: Inhibition of human NCI-H596 cell growth in a cell viability assay.

[50] = system: IST-SL1; type: functional, cell-based, Homo sapiens; conditions: Homo sapiens, IST-SL1;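 further: growth inhibition of human IST-SL1 cells, read out with a cell viability assay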
Description: SANGER: Inhibition of human IST-SL1 cell growth in a cell viability assay.

[51] = system: UO-31; type: functional, cell-based; conditions: Homo sapiens;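 further: cell viability assay measuring inhibition of cell growth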
Description: SANGER: Inhibition of human U031 cell growth in a cell viability assay.

[52] = system: K562; type: functional, cell-based; conditions: Homo sapiens
Description: SANGER: Inhibition of human K-562 cell growth in a cell viability assay.

[53] = system: NTERA-2-cl-D1; type: functional, cell-based, Homo sapiens; conditions: Homo sapiens, NTERA-2-cl-D1;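 further: inhibition of cell growth, measured with a cell viability assay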
Description: SANGER: Inhibition of human NTERA-S-cl-D1 cell growth in a cell viability assay.

Q: With `CCOc1nc(NC(=O)Cc2cc(OC)ccc2OC)cc(N)c1C#N` as the molecule, how does the IC50 [1] read?
A: > 10 µM

Q: And the IC50 [2]?
A: > 10 µM

Q: And the IC50 [3]?
A: > 10 µM

Q: And the IC50 [4]?
A: > 10 µM

Q: And the IC50 [5]?
A: > 10 µM

Q: What about the IC50 [6] of the same molecule?
A: > 10 µM

Q: What about the IC50 [7] of the same molecule?
A: > 10 µM

Q: And the IC50 [8]?
A: > 10 µM

Q: And the IC50 [9]?
A: > 10 µM

Q: And the IC50 [10]?
A: > 10 µM

Q: What about the IC50 [11] of the same molecule?
A: > 10 µM

Q: What about the IC50 [12] of the same molecule?
A: > 10 µM

Q: What about the IC50 [13] of the same molecule?
A: > 10 µM

Q: What about the IC50 [14] of the same molecule?
A: > 10 µM

Q: And the IC50 [15]?
A: > 10 µM

Q: What about the IC50 [16] of the same molecule?
A: > 10 µM

Q: And the IC50 [17]?
A: > 10 µM

Q: And the IC50 [18]?
A: > 10 µM

Q: What about the IC50 [19] of the same molecule?
A: > 10 µM

Q: And the IC50 [20]?
A: > 10 µM

Q: And the IC50 [21]?
A: > 10 µM

Q: What about the IC50 [22] of the same molecule?
A: > 10 µM

Q: And the IC50 [23]?
A: > 10 µM

Q: And the IC50 [24]?
A: > 10 µM

Q: And the IC50 [25]?
A: > 10 µM

Q: What about the IC50 [26] of the same molecule?
A: > 10 µM

Q: And the IC50 [27]?
A: > 10 µM

Q: What about the IC50 [28] of the same molecule?
A: > 10 µM

Q: And the IC50 [29]?
A: > 10 µM

Q: What about the IC50 [30] of the same molecule?
A: > 10 µM

Q: What about the IC50 [31] of the same molecule?
A: > 10 µM

Q: What about the IC50 [32] of the same molecule?
A: > 10 µM

Q: What about the IC50 [33] of the same molecule?
A: > 10 µM

Q: What about the IC50 [34] of the same molecule?
A: > 10 µM

Q: And the IC50 [35]?
A: > 10 µM

Q: What about the IC50 [36] of the same molecule?
A: > 10 µM

Q: And the IC50 [37]?
A: > 10 µM

Q: What about the IC50 [38] of the same molecule?
A: > 10 µM

Q: And the IC50 [39]?
A: > 10 µM

Q: And the IC50 [40]?
A: > 10 µM

Q: What about the IC50 [41] of the same molecule?
A: > 10 µM

Q: And the IC50 [42]?
A: > 10 µM

Q: And the IC50 [43]?
A: > 10 µM

Q: What about the IC50 [44] of the same molecule?
A: > 10 µM

Q: And the IC50 [45]?
A: > 10 µM

Q: And the IC50 [46]?
A: > 10 µM

Q: What about the IC50 [47] of the same molecule?
A: > 10 µM

Q: What about the IC50 [48] of the same molecule?
A: > 10 µM

Q: What about the IC50 [49] of the same molecule?
A: > 10 µM

Q: What about the IC50 [50] of the same molecule?
A: > 10 µM

Q: What about the IC50 [51] of the same molecule?
A: > 10 µM

Q: What about the IC50 [52] of the same molecule?
A: > 10 µM

Q: What about the IC50 [53] of the same molecule?
A: > 10 µM

Q: Which results are given for `O=C1N=C(NCc2cccs2)S/C1=C\c1ccc2ncccc2c1`?
A: IC50 [1]: > 5 µM; IC50 [2]: > 5 µM; IC50 [3]: > 5 µM; IC50 [4]: > 5 µM; IC50 [5]: > 5 µM; IC50 [6]: > 5 µM; IC50 [7]: > 5 µM; IC50 [8]: > 5 µM; IC50 [9]: > 5 µM; IC50 [10]: 4.38 µM; IC50 [11]: > 5 µM; IC50 [12]: > 5 µM; IC50 [13]: > 5 µM; IC50 [14]: > 5 µM; IC50 [15]: > 5 µM; IC50 [16]: > 5 µM; IC50 [17]: > 5 µM; IC50 [18]: > 5 µM; IC50 [19]: > 5 µM; IC50 [20]: > 5 µM; IC50 [21]: > 5 µM; IC50 [22]: > 5 µM; IC50 [23]: > 5 µM; IC50 [24]: > 5 µM; IC50 [25]: > 5 µM; IC50 [26]: > 5 µM; IC50 [27]: > 5 µM; IC50 [28]: > 5 µM; IC50 [29]: > 5 µM; IC50 [30]: > 5 µM; IC50 [31]: > 5 µM; IC50 [32]: > 5 µM; IC50 [33]: > 5 µM; IC50 [34]: > 5 µM; IC50 [35]: > 5 µM; IC50 [36]: > 5 µM; IC50 [37]: > 5 µM; IC50 [38]: > 5 µM; IC50 [39]: > 5 µM; IC50 [40]: > 5 µM; IC50 [41]: > 5 µM; IC50 [42]: > 5 µM; IC50 [43]: > 5 µM; IC50 [44]: 1.91 µM; IC50 [45]: > 5 µM; IC50 [46]: > 5 µM; IC50 [47]: > 5 µM; IC50 [48]: > 5 µM; IC50 [49]: > 5 µM; IC50 [50]: > 5 µM; IC50 [51]: > 5 µM; IC50 [52]: > 5 µM; IC50 [53]: > 5 µM
